Holding throughout (format): organism-based
Common to all, as to conditions: in vivo

Series [1] is described as follows: Toxicity in Artemia salina.
Series [2] can be described thus: Ichthyotoxicity in Carassius auratus.
For the next series, the system named is Biomphalaria glabrata. Put plainly: Molluscicidal activity against Biomphalaria glabrata after 24 hrs.

Converted amounts (≈) assume the structure as drawn.

For the compound `C=CC[C@@H](CC/C(C)=C/C=C/CC/C=C\[C@@H]1CSC([C@@H]2C[C@@H]2C)=N1)OC` [CURACIN A], the median lethal concentration (LC50) in series [1] turned out to be 0.0025 µg/mL (≈ 0.00669 µM).
Compound `C=C1CC(=O)N[C@@H](C)C(=O)N(C)[C@@H](C(C)C)C(=O)NCC(=O)O[C@@H](/C(C)=C/C(C)=C/C(C)(C)C)[C@@H]1C` [ANTILLATOXIN] yielded an LC50 in series [2] of 0.05 µg/mL (≈ 0.0993 µM).
Same read-out and setting: the same measure for `C=C(CCNC(=O)CC/C=C/C[C@H](CCCCCCC)OC)[C@@]12O[C@@H]1CC=C(C)C2=O` [MALYNGAMIDE H]: 5 µg/mL (≈ 11.6 µM).
`CO/C(=C/C(=O)N(C)C(Cc1ccccc1)c1nccs1)CC(C)C(Cl)(Cl)Cl` (centres undefined) [BARBAMIDE]: the LC100 with Biomphalaria glabrata turned out to be 100 µg/mL.
